According to US8030321B2, “Benzofuro- and benzothienopyrimidine modulators of the histamine H4 receptor” (Janssen Pharmaceutica, NV, priority 2006, dated 2011):
pKi: −log10 of the molar value. Structures can show the parent of a compound that is named as a salt.

These molecules were tested against T1, human histamine H4 receptor (Homo sapiens, UniProt Q9H3N8) (assay: Binding Assay on Recombinant Human Histamine H4 Receptor). Conditions: not given.
T1 construct: expressed in transfected cells; host or cells: SK-N-MC cells or COS7 cells, transiently transfected; cell membranes used
Protocol: Binding Assay on Recombinant Human Histamine H4 Receptor
SK-N-MC cells or COS7 cells were transiently transfected with pH4R and grown in 150 cm^2 tissue culture dishes. Cells were washed with saline solution, scraped with a cell scraper and collected by centrifugation (1000 rpm, 5 min). Cell membranes were prepared by homogenization of the cell pellet in 20 mM Tris-HCl with a polytron tissue homogenizer for 10 sec at high speed. Homogenate was centrifuged at 1000 rpm for 5 min at 4° C. […] The final pellet was resuspended in 50 mM Tris-HCl. Cell membranes were incubated with ^3H-histamine (5-70 nM) in the presence or absence of excess histamine (10,000 nM). […] Membranes were harvested by rapid filtration over Whatman GF/C filters and washed 4 times with ice-cold 50 mM Tris HCl. Filters were then dried, mixed with scintillant and counted for radioactivity. SK-N-MC or COS7 cells expressing human histamine H4 receptor were used to measure the affinity of binding of other compounds and their ability to displace ^3H-ligand binding by incubating the above-described reaction in the presence of various concentrations of inhibitor or compound to be tested.

| Compound | pKi |
| --- | --- |
| Nc1nc(N2CCN3CCCC3C2)c2oc3ccc(F)cc3c2n1 (stereo not shown) [Example 40, 8-Fluoro-4-(hexahydro-pyrrolo[1,2-a]pyrazin-2-yl)-benzo[4,5]furo[3,2-d]pyrimidin-2-ylamine trifluoroacetic acid salt] | 7.36 |
| Nc1nc(N2CC3CCCNC3C2)c2oc3ncccc3c2n1 (stereo not shown) [Example 43, 8-(Octahydro-pyrrolo[3,4-b]pyridin-6-yl)-9-oxa-1,5,7-triaza-fluoren-6-ylamine] | 7.06 |
| Nc1nc(N2CC3CCCNC3C2)c2sc3ccc(Br)cc3c2n1 (stereo not shown) [Example 45, 8-Bromo-4-(octahydro-pyrrolo[3,4-b]pyridin-6-yl)-benzo[4,5]thieno[3,2-d]pyrimidin-2-ylamine hydrochloride salt] | 8.32 |
| Nc1nc(N2CC3CCCNC3C2)c2sc3cc(Br)ccc3c2n1 (stereo not shown) [Example 46, 7-Bromo-4-(octahydro-pyrrolo[3,4-b]pyridin-6-yl)-benzo[4,5]thieno[3,2-d]pyrimidin-2-ylamine trifluoroacetic acid salt] | 7.55 |
| Nc1nc(N2C[C@@H]3C[C@H]2CN3)c2sc3ccc(Br)cc3c2n1 [Example 49, (S,S)-8-Bromo-4-(2,5-diaza-bicyclo[2.2.1]hept-2-yl)-benzo[4,5]thieno[3,2-d]pyrimidin-2-ylamine hydrochloride salt] | 6.46 |
| Nc1nc(N2C[C@@H]3C[C@H]2CN3)c2sc3cc(Cl)ccc3c2n1 [Example 62, (S,S)-7-Chloro-4-(2,5-diaza-bicyclo[2.2.1]hept-2-yl)-benzo[4,5]thieno[3,2-d]pyrimidin-2-ylamine trifluoroacetic acid salt] | 6.06 |
| Nc1nc(N2CC3CCCNC3C2)c2sc3ccc(Cl)cc3c2n1 (stereo not shown) [Example 64, 8-Chloro-4-(octahydro-pyrrolo[3,4-b]pyridin-6-yl)-benzo[4,5]thieno[3,2-d]pyrimidin-2-ylamine trifluoroacetic acid salt] | 8.30 |

Same assay, conditions: competition binding with 3H-histamine (5 nM), membranes of SK-N-MC or COS7 cells expressing human H4 receptor; Cheng-Prusoff, KD 5 nM; average of results obtained; read-out: Ki

| Compound | pKi |
| --- | --- |
| Nc1nc(N2CCNCC2)c2oc3c(Cl)cc(Cl)cc3c2n1 [Example 31, 6,8-Dichloro-4-piperazin-1-yl-benzo[4,5]furo[3,2-d]pyrimidin-2-ylamine trifluoroacetic acid salt] | 6.85 |
| Nc1nc(N2CCCNCC2)c2oc3c(Cl)cc(Cl)cc3c2n1 [Example 32, 6,8-Dichloro-4-[1,4]diazepan-1-yl-benzo[4,5]furo[3,2-d]pyrimidin-2-ylamine trifluoroacetic acid salt] | 6.80 |
| Nc1nc(N2C[C@@H]3C[C@H]2CN3)c2oc3ccccc3c2n1 [Example 33, (S,S)-4-(2,5-Diaza-bicyclo[2.2.1]hept-2-yl)-benzo[4,5]furo[3,2-d]pyrimidin-2-ylamine trifluoroacetic acid salt] | 6.70 |
| CC(C)N1CCN(c2nc(N)nc3c2oc2ccc(Cl)cc23)CC1 [Example 34, 8-Chloro-4-(4-isopropyl-piperazin-1-yl)-benzo[4,5]furo[3,2-d]pyrimidin-2-ylamine trifluoroacetic acid salt] | 6.62 |
| CN(C)C1CCN(c2nc(N)nc3c2oc2c(Cl)cc(Cl)cc23)C1 (stereo not shown) [Example 35, 6,8-Dichloro-4-(3-dimethylamino-pyrrolidin-1-yl)-benzo[4,5]furo[3,2-d]pyrimidin-2-ylamine trifluoroacetic acid salt] | 6.42 |
| Nc1nc(N2CCN3CCCCC3C2)c2oc3ccccc3c2n1 (stereo not shown) [Example 36, 4-(Octahydro-pyrido[1,2-a]pyrazin-2-yl)-benzo[4,5]furo[3,2-d]pyrimidin-2-ylamine trifluoroacetic acid salt] | 6.17 |
| Nc1nc(N2CCN3CCCCC3C2)c2oc3c(Cl)cc(Cl)cc3c2n1 (stereo not shown) [Example 37, 6,8-Dichloro-4-(octahydro-pyrido[1,2-a]pyrazin-2-yl)-benzo[4,5]furo[3,2-d]pyrimidin-2-ylamine trifluoroacetic acid salt] | 6.10 |
| Nc1nc(N2C[C@@H]3C[C@H]2CN3)c2oc3c(Cl)cc(Cl)cc3c2n1 [Example 38, (S,S)-6,8-Dichloro-4-(2,5-diaza-bicyclo[2.2.1]hept-2-yl)-benzo[4,5]furo[3,2-d]pyrimidin-2-ylamine trifluoroacetic acid salt] | < 5.00 |
| CN[C@@H]1CCN(c2nc(N)nc3c2oc2ccc(F)cc23)C1 [Example 39, (R)-8-Fluoro-4-(3-methylamino-pyrrolidin-1-yl)-benzo[4,5]furo[3,2-d]pyrimidin-2-ylamine trifluoroacetic acid salt] | 8.64 |
| CN1CCC(N(C)c2nc(N)nc3c2oc2ccc(F)cc23)C1 (stereo not shown) [Example 41, 8-Fluoro-N^4-methyl-N^4-(1-methyl-pyrrolidin-3-yl)-benzo[4,5]furo[3,2-d]pyrimidine-2,4-diamine trifluoroacetic acid salt] | 6.96 |
| CN[C@@H]1CCN(c2nc(N)nc3c2oc2ncccc23)C1 [Example 42, (R)-8-(3-Methylamino-pyrrolidin-1-yl)-9-oxa-1,5,7-triaza-fluoren-6-ylamine] | 7.15 |
| CN[C@H]1CCN(c2nc(N)nc3c2sc2cc(C(F)(F)F)ccc23)C1 [Example 51, (S)-4-(3-Methylamino-pyrrolidin-1-yl)-7-trifluoromethyl-benzo[4,5]thieno[3,2-d]pyrimidin-2-ylamine trifluoroacetic acid salt] | < 5.00 |
| Nc1nc(N2C[C@@H]3C[C@H]2CN3)c2sc3cc(C(F)(F)F)ccc3c2n1 [Example 53, (S,S)-4-(2,5-Diaza-bicyclo[2.2.1]hept-2-yl)-7-trifluoromethyl-benzo[4,5]thieno[3,2-d]pyrimidin-2-ylamine trifluoroacetic acid salt] | < 5.00 |
| Nc1nc(N2CC3CCCNC3C2)c2sc3cc(C(F)(F)F)ccc3c2n1 (stereo not shown) [Example 58, 4-(Octahydro-pyrrolo[3,4-b]pyridin-6-yl)-7-trifluoromethyl-benzo[4,5]thieno[3,2-d]pyrimidin-2-ylamine trifluoroacetic acid salt] | 6.52 |

The next lines start with the values.

| pKi | Compound |
| --- | --- |
| 7.54 | CN1CCN(c2nc(N)nc3c2sc2ccccc23)CC1 [Example 44, 4-(4-Methyl-piperazin-1-yl)-benzo[4,5]thieno[3,2-d]pyrimidin-2-ylamine] |
| 7.00 | CN[C@H]1CCN(c2nc(N)nc3c2sc2ccc(Br)cc23)C1 [Example 47, (S)-8-Bromo-4-(3-methylamino-pyrrolidin-1-yl)-benzo[4,5]thieno[3,2-d]pyrimidin-2-ylamine hydrochloride salt] |
| 8.68 | CN[C@@H]1CCN(c2nc(N)nc3c2sc2ccc(Br)cc23)C1 [Example 48, (R)-8-Bromo-4-(3-methylamino-pyrrolidin-1-yl)-benzo[4,5]thieno[3,2-d]pyrimidin-2-ylamine hydrochloride salt] |
| 9.00 | CN1CCN(c2nc(N)nc3c2sc2ccc(Br)cc23)CC1 [Example 50, 8-Bromo-4-(4-methyl-piperazin-1-yl)-benzo[4,5]thieno[3,2-d]pyrimidin-2-ylamine hydrochloride salt] |
| 6.92 | CN[C@@H]1CCN(c2nc(N)nc3c2sc2cc(C(F)(F)F)ccc23)C1 [Example 52, (R)-4-(3-Methylamino-pyrrolidin-1-yl)-7-trifluoromethyl-benzo[4,5]thieno[3,2-d]pyrimidin-2-ylamine trifluoroacetic acid salt] |
| 6.36 | CN1CCN(c2nc(N)nc3c2sc2cc(C(F)(F)F)ccc23)CC1 [Example 54, 4-(4-Methyl-piperazin-1-yl)-7-trifluoromethyl-benzo[4,5]thieno[3,2-d]pyrimidin-2-ylamine trifluoroacetic acid salt] |
| 7.37 | CN1CCN(c2nc(N)nc3c2sc2cc(Br)ccc23)CC1 [Example 55, 7-Bromo-4-(4-methyl-piperazin-1-yl)-benzo[4,5]thieno[3,2-d]pyrimidin-2-ylamine trifluoroacetic acid salt] |
| 7.60 | CN[C@@H]1CCN(c2nc(N)nc3c2sc2cc(Br)ccc23)C1 [Example 56, (R)-7-Bromo-4-(3-methylamino-pyrrolidin-1-yl)-benzo[4,5]thieno[3,2-d]pyrimidin-2-ylamine trifluoroacetic acid salt] |
| 6.82 | CN[C@H]1CCN(c2nc(N)nc3c2sc2cc(Br)ccc23)C1 [Example 57, (S)-7-Bromo-4-(3-methylamino-pyrrolidin-1-yl)-benzo[4,5]thieno[3,2-d]pyrimidin-2-ylamine trifluoroacetic acid salt] |
| 8.28 | CN[C@@H]1CCN(c2nc(N)nc3c2sc2cc(Cl)ccc23)C1 [Example 60, (R)-7-Chloro-4-(3-methylamino-pyrrolidin-1-yl)-benzo[4,5]thieno[3,2-d]pyrimidin-2-ylamine trifluoroacetic acid salt] |
| 7.48 | CN[C@H]1CCN(c2nc(N)nc3c2sc2cc(Cl)ccc23)C1 [Example 61, (S)-7-Chloro-4-(3-methylamino-pyrrolidin-1-yl)-benzo[4,5]thieno[3,2-d]pyrimidin-2-ylamine trifluoroacetic acid salt] |
| 7.72 | CN1CCN(c2nc(N)nc3c2sc2cc(Cl)ccc23)CC1 [Example 63, 7-Chloro-4-(4-methyl-piperazin-1-yl)-benzo[4,5]thieno[3,2-d]pyrimidin-2-ylamine trifluoroacetic acid salt] |
| 7.00 | CN[C@H]1CCN(c2nc(N)nc3c2sc2ccc(Cl)cc23)C1 [Example 65, (S)-8-Chloro-4-(3-methylamino-pyrrolidin-1-yl)-benzo[4,5]thieno[3,2-d]pyrimidin-2-ylamine trifluoroacetic acid salt] |
